The test system of data set [1] is stress granules and P-bodies. As to conditions: literature, cited from earlier work.
Data set [2] concerns P-bodies (EDC4 foci) in HEK293T cells. Description: Immunofluorescence phenotypic screen for P-bodies (α-EDC4) in glucose-deprived HEK293T cells. The class given is cell-based. As for the experimental part: (§1) SuTEx compound treatments. Prior to treatments, cells were washed twice with warm phosphate-buffered saline (PBS) and exchanged with serum-free DMEM (supplemented with 1% L-glutamine) for at least 30 minutes at 37° C. with 5% CO2. Compounds were then added as 1000×DMSO stocks (10 μL for 10 cm dishes and 3 μL for 6-well dishes), plates were mixed gently, and cells were incubated for two hours. All compounds were thoroughly vortexed and sonicated for five minutes prior to addition to ensure complete solvation. For microscopy experiments, cultures were seeded at 150,000 cells in 3 mL of DMEM in 6-well THERMO SCIENTIFIC™ BIOLITE™ brand microwell plates (Catalog No. 12556004; Thermo Fisher Scientific Inc., Waltham, Massachusetts. United States of America). For collection, media was aspirated, and cells were washed once with cold PBS before scraping from plates. Cells were centrifuged at 500×g at 4° C. for 5 minutes and supernatant was removed. Cell pellets were resuspended in cold PBS (1 mL) and centrifuged at 1,400×g at 4° C. for 3 minutes. Supernatant was again removed, and pellets were then snap-frozen in liquid nitrogen and stored at −80° C. until needed.
(§2) Immunofluorescence. Immunofluorescence (IF) of HEK293T cells was performed as previously described in Ciancone et al., 2022. HeLa cells were seeded at 9.0×10^4 in a 24-well plate with 12-mm glass coverslips. The next day, the cells were treated with 25 μM SuTEx probe for 2 hours in DMEM medium without FBS. The cells were then treated with 75 μM NaAsO2 for 30 minutes and fixed with 3% paraformaldehyde in PBS for 15 minutes at room temperature (RT) and washed with PBS twice. The fixed cells were permeabilized with PBST (0.1% Triton X-100) for 15 minutes at room temperature and blocked with 5% goat serum in PBST for 30 minutes at RT. The cells were incubated with anti-G3BP1 antibody H-10 (Catalog No. sc-365338 at 1:200 dilution; Santa Cruz Biotechnology, Inc., Dallas, Texas, United States of America) for 2 hours at RT and washed with PBST (0.1% Tween-20) for 5 minutes three times. Next, cells were incubated with goat anti-mouse Alexa 594 antibody (Catalog No. 115-585-003 at 1:800 dilution; Jackson ImmunoResearch, West Grove, Pennsylvania, United States of America) for 30 minutes at RT. The cells were washed twice with PBST, stained with Hoechst 33342 (Catalog No. H3570 at […]; Thermo Fischer Scientific) in PBST for 5 minutes, and washed with PBS twice for 5 minutes. The coverslips were mounted in PROLONG™ Gold AntiFade Mountant (Catalog No. P36930, Thermo Fisher Scientific) and imaged using NIS Elements AR software and a Nikon Eclipse Ti microscope equipped with a ×100 objective and CMOS camera. […] A CellProfiler pipeline was developed to quantify the number of stress granules under each condition. Briefly, cells were recognized as blue^+ (nuclei) red^+ (G3BP1) objects, and the red^+ granules that meet the shape and size threshold were identified and counted. Cells on the border of linages were excluded from the analysis for more accurate quantification.
Data Analysis—Microscopy. All slides were blinded for imaging. Leica SP5X images were analyzed using Fiji (ImageJ). Custom macros were written for analysis and can be obtained upon request. To elaborate, images were split into channels based on the different laser wavelengths measured. Image stacks were then combined using ‘Z-Project’ with an average intensity parameter and a threshold was applied to exclude noise based on the negative control (no EDC4 antibody). The ‘Analyze Particles’ function was used with relevant size and circularity constraints (0.85-1.00) to count the number of foci, with total PBs having a diameter of >150 nm, and large PBs>450 nm. The number of foci was normalized to the number of cells (defined by a DAPI stain count) in each linage, and the number of foci per cell was averaged across technical replicates. Every sample had at least two technical replicates and two independent biological replicates. […]

In data set [3] the test system is stress granules (G3BP1 foci) in HeLa cells. Description: Immunofluorescence phenotypic screen for stress granules (α-G3BP1) in stressed HeLa cells. The format is cell-based. As to conditions: 25 μM, 2 h. As for the experimental part:
as §1, §2
We used immunofluorescence (IF) detection for phenotypic screening of SuTEx compound activity on stress-induced PB and SG levels in cells (FIG. 1B). PBs were induced through glucose deprivation of HEK293T cells and detected by immunofluorescence with anti-enhancer of mRNA-decapping protein 4 (EDC4) as previously described (Kedersha & Anderson, 2007; Ciancone et al., 2022) (~4 vs 2 PBs/cell in −glucose and +glucose conditions, respectively; FIG. 8). EDC4 is an established PB marker for mammalian cells and is important for PB formation (Kedersha & Anderson, 2007; Luo et al., 2018). SGs were induced in HeLa cells by [COMPOUND LEFT OUT] treatments and detected by fluorescent staining with anti-Ras GTPase-activating protein-binding protein 1 (G3BP1) antibody (75 μM [COMPOUND LEFT OUT], 30 min; FIG. 9). G3BP1 foci have been used in previous IF studies to identify SGs in cells (Kedersha & Anderson, 2007). […]

The test system of data set [4] is eIF4A. As to conditions: literature; cited from earlier work.
Where [5] appears, read: glucose-deprived HEK293T cells, 25 μM, 2 h.

Like-named read-outs stand apart in the source and are kept apart here. A value given as a limit tells only on which side of the number the result lay.

In the case of `O=c1[nH]cc(F)c(=O)[nH]1` [5-fluorouracil], the “effect on RNP granules (in words)” value in data set [1] is reported as “formation of pro-survival SGs in solid tumors”.
As for `O=S(=O)(c1cccnc1)n1cc(-c2ccccc2F)nn1` [AMC-001, 3-((4-(2-Fluorophenyl)-1H-1,2,3-triazol-1-yl)sulfonyl)pyridine], the fold induction at 25 µM in data set [2] (Homo sapiens, HEK-293T, glucose-deprived HEK293T cells, pretreatment, 25 μM, 2 h, read-out: increase in PBs/cells) was greater than 2. Further, the “effect on PBs (in words)” value in data set [2] (setting [5]) is “statistically significant increase in PBs per glucose-deprived cell”. For the same compound, the “increase in PBs” value in data set [2] (glucose-deprived cells, pretreatment) is given as greater than 200%. In data set [3], the “effect on SGs (in words)” value is given as “negligible effects on the number of SGs per cell”.
`O=S(=O)(c1ccc(F)cc1)n1cnc(-c2cccnc2)n1` [JWB180, 3-(1-((4-Fluorophenyl)sulfonyl)-1H-1,2,4-triazol-3-yl)pyridine]: in data set [2] (setting [5]), the “effect on PBs (in words)” value is listed as “negligible effects”. Besides, the “effect on SGs (in words)” value in data set [3] is on record as “negligible effects”.
In the case of `CC(C)C[C@H](NC(=O)[C@H](Cc1ccccc1)NC(=O)c1cnccn1)B(O)O` [bortezomib], the “effect on RNP granules (in words)” value in data set [1] is on record as “formation of pro-survival SGs in solid tumors”.
Turning to `C[C@@H]1C[C@@H]([C@H](O)CC2CC(=O)NC(=O)C2)C(=O)[C@@H](C)C1` [cycloheximide], the “toxicity (in words)” value in data set [1] is given as “significant toxicity”.
For `CC[C@H]1CN2CCc3cc(OC)c(OC)cc3[C@@H]2C[C@@H]1C[C@H]1NCCc2cc(OC)c(OC)cc21` [emetine], the “effect on PB formation (in words)” value in data set [2] (emetine 50 nM, 2 h, vs vehicle (water), p<0.001) is on record as “inhibited PB formation”. Besides, in data set [1], the “effect on RNP granules (in words)” value is “disassemble SGs and stress-induced PBs”; the “toxicity (in words)” value is recorded as “significant toxicity”. The “effect on RNP granules (in words)” value in data set [1] (listed as Emetine) was “inhibit and even dissociate PBs”.
Take `C[C@H]1C[C@@]2(O[C@H]3C[C@H]4[C@@H]5CC[C@H]6C[C@H](O)CC[C@]6(C)[C@H]5[C@@H](O)C[C@]4(C)[C@H]3[C@@]2(C)O)OC1(C)C` [hippuristanol]: in data set [4], the “inhibition of eIF4A (in words)” value is reported as “inhibit eIF4A”. Further, the “effect on RNP granules (in words)” value in data set [1] was “induce SGs in an eIF2a-independent manner”.
In the case of `CC(/C=C/C(C)=C/[C@@H]1Cc2nc(cs2)[C@@H](C)C[C@@H](N)CC(=O)O[C@@H](C)C/C(C)=C/C=C\C(=O)O1)=C\CN(C)C` [pateamine A], the “inhibition of eIF4A (in words)” value in data set [4] was “inhibit eIF4A”. The “effect on RNP granules (in words)” value in data set [1] is “induce SGs in an eIF2a-independent manner”.
As for `COc1ccc([C@@]23Oc4cc(OC)cc(OC)c4[C@]2(O)[C@H](O)[C@H](C(=O)N(C)C)[C@H]3c2ccccc2)cc1` [rocaglamide A], the “inhibition of eIF4A (in words)” value in data set [4] was “inhibit eIF4A”.
Take `COC(=O)[C@H]1[C@@H](O)[C@@]2(O)c3c(OC)cc(O[C@@H]4O[C@@H]([C@H](O)CO)CO[C@H]4OC)cc3O[C@@]2(c2ccc(OC)cc2)[C@@H]1c1ccccc1` [silvestrol]: in data set [4], the “inhibition of eIF4A (in words)” value is given as “inhibit eIF4A”.
Turning to `CC[C@]1(O)C[C@@H]2CN(CCc3c([nH]c4ccccc34)[C@@](C(=O)OC)(c3cc4c(cc3OC)N(C)[C@H]3[C@@](O)(C(=O)OC)[C@H](OC(C)=O)[C@]5(CC)C=CCN6CC[C@]43[C@@H]65)C2)C1` [vinblastine], the “effect on RNP granules (in words)” value in data set [1] is “form PBs”.

Source of the values: patent publication US20260294874A1, “COMPOSITIONS COMPRISING MODULATORS OF RIBONUCLEOPROTEIN GRANULE FORMATION AND DISSOLUTION AND METHODS OF USE THEREOF” (University of Virginia Patent Foundation, priority 2023, published 2026).
